Test results as given in publication doi:10.1101/2022.07.05.498881v1 (biorxiv, 2022).
Read-outs that look alike come from different tables or passages of the source.

Legend:
[1] = molecular target: T1, SARS-CoV-1 MPro (SARS-CoV-1 major protease) (Severe acute respiratory syndrome-related coronavirus, UniProt P0C6X7); assay: biochemical
T1 construct: gene rep

[2] = molecular target: T2, MERS MPro (MERS-CoV MPro, MERS major protease) (Betacoronavirus England 1, UniProt K9N7C7); assay: biochemical
T2 construct: gene rep

[3] = molecular target: T3, SARS-CoV-2 MPro (main protease, 3CL protease, Nsp5) (Severe acute respiratory syndrome coronavirus 2, UniProt P0DTD1); assay: biochemical; parameters: fluorogenic NSP7 peptide substrate cleavage, concentration-response inhibition of MPro
T3 construct: gene rep

[4] = molecular target: T3, SARS-CoV-2 MPro (main protease, 3CL protease, Nsp5); parameters: fluorogenic NSP7 peptide substrate cleavage, concentration-response inhibition of MPro; details: read-out: IC50 [µM] (ACN); compound in acetonitrile; inhibitor

T2 sequence (K9N7C7 3248-3553 limits assumed): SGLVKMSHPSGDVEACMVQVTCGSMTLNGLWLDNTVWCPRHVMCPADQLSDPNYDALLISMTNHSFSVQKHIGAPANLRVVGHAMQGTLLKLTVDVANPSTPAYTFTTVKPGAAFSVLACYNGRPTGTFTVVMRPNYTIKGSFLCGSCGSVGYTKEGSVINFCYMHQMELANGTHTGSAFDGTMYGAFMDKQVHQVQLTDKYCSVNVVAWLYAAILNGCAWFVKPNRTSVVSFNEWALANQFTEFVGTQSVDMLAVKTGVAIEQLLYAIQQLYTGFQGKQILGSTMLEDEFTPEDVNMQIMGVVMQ

Row | Structure (SMILES) | IC50 [3] [µM] | also measured
1 | O=Cc1ncc(Br)cc1OCc1ccc(Cl)c([N+](=O)[O-])c1 ['7021] | – | IC50 [1]: 8 µM; IC50 [2]: 50 µM
2 | COc1cc(C=O)c(OS(=O)(=O)CC2CCCCC2)cc1OC [ZINC271072260] | 115 | –
3 | Cc1noc(C)c1CCCNc1nc(-c2ccncc2)nc2ccccc12 [ZINC301553312] | 122 | –
4 | CC1CN(c2ncnc3sc4ccccc4c23)CC(=O)N1C (stereo not shown) [ZINC336912805] | – | IC50 ([3]; read-out: IC50 [µM] (DMSO), compound in DMSO, inhibitor): 250 µM; IC50 [4]: 177 µM
5 | COC(=O)c1cc(C#N)c(=O)n(Cc2cccc(F)c2Cl)c1 [ZINC338540162] | 281 | –
6 | O=C(Cc1cccnc1)N(Cc1ccccn1)c1ccc(Cl)cc1 [ZINC346371112] | 214 | –
7 | O=c1cc(CN2CC(CO)c3ccccc32)nc2ccccn12 (stereo not shown) [ZINC433294115] | 97 | –
8 | CC1CN(C(=O)CCn2cc(Br)ccc2=O)Cc2ccccc2O1 (stereo not shown) [ZINC553840273] | 200 | –
